Test results published in ChEMBL document CHEMBL1127517 (J Med Chem, 1994).

What was measured:
[1] = system: Rattus norvegicus; assay: Distribution of radio activity in tissues of unfasted male rats was measured at 30 min of time in heart after intravenous administration; assay type: ADME, organism-based; conditions: in vivo, 0.5 h
[2] = system: Rattus norvegicus; assay: Distribution of radio activity in tissues of unfasted male rats was measured as regional uptake at 120 min of time in hippocampus after intravenous administration; assay type: ADME, organism-based; conditions: in vivo, 2 h
[3] = system: Rattus norvegicus; assay: Distribution of radio activity in tissues of unfasted male rats was measured at 60 min of time in blood after intravenous administration; assay type: ADME, organism-based; conditions: in vivo, 1 h
[4] = system: Rattus norvegicus; assay: Distribution of radio activity in tissues of unfasted male rats was measured as regional uptake at 2 min of time in striatum after intravenous administration; assay type: ADME, organism-based; conditions: in vivo
[5] = system: Rattus norvegicus; assay: Distribution of radio activity in tissues of unfasted male rats was measured at 30 min of time in lung after intravenous administration; assay type: ADME, organism-based; conditions: in vivo, 0.5 h
[6] = system: Rattus norvegicus; assay: Distribution of radio activity in tissues of unfasted male rats was measured at 60 min of time in thyroid after intravenous administration; assay type: ADME, organism-based, Thyroid gland; conditions: in vivo, 1 h
[7] = molecular target: Sodium-dependent dopamine transporter (Rattus norvegicus, UniProt P23977); assay: Inhibitory constant towards reuptake of [125I]-12 from dopamine transporter in rat striatal membranes; assay type: cell membranes, Membrane
[8] = system: Rattus norvegicus; assay: Distribution of radio activity in tissues of unfasted male rats was measured as regional uptake at 30 min of time in hippocampus after intravenous administration; assay type: ADME, organism-based; conditions: in vivo, 0.5 h
[9] = system: Rattus norvegicus; assay: Distribution of radio activity in tissues of unfasted male rats was measured at 2 min of time in liver after intravenous administration; assay type: ADME, organism-based; conditions: in vivo
[10] = system: Rattus norvegicus; assay: Distribution of radio activity in tissues of unfasted male rats was measured as regional uptake at 2 min of time in hippocampus after intravenous administration; assay type: ADME, organism-based; conditions: in vivo
[11] = system: Rattus norvegicus; assay: Distribution of radio activity in tissues of unfasted male rats was measured at 2 min of time in spleen after intravenous administration; assay type: ADME, organism-based; conditions: in vivo
[12] = system: Rattus norvegicus; assay: Distribution of radio activity in tissues of unfasted male rats was measured at 120 min of time in kidney after intravenous administration; assay type: ADME, organism-based; conditions: in vivo, 2 h
[13] = system: Rattus norvegicus; assay: Distribution of radio activity in tissues of unfasted male rats was measured at 120 min of time in spleen after intravenous administration; assay type: ADME, organism-based; conditions: in vivo, 2 h
[14] = system: Rattus norvegicus; assay: Distribution of radio activity in tissues of unfasted male rats was measured as regional uptake at 2 min of time in ST/CB after intravenous administration; assay type: ADME, organism-based; conditions: in vivo
[15] = system: Rattus norvegicus; assay: Distribution of radio activity in tissues of unfasted male rats was measured at 2 min of time in muscle after intravenous administration; assay type: ADME, organism-based, Muscle tissue; conditions: in vivo
[16] = system: Rattus norvegicus; assay: Distribution of radio activity in tissues of unfasted male rats was measured at 60 min of time in lung after intravenous administration; assay type: ADME, organism-based; conditions: in vivo, 1 h
[17] = system: Rattus norvegicus; assay: Distribution of radio activity in tissues of unfasted male rats was measured at 60 min of time in kidney after intravenous administration; assay type: ADME, organism-based; conditions: in vivo, 1 h
[18] = system: Rattus norvegicus; assay: Distribution of radio activity in tissues of unfasted male rats was measured at 120 min of time in blood after intravenous administration; assay type: ADME, organism-based; conditions: in vivo, 2 h
[19] = system: Rattus norvegicus; assay: Distribution of radio activity in tissues of unfasted male rats was measured at 60 min of time in spleen after intravenous administration; assay type: ADME, organism-based; conditions: in vivo, 1 h
[20] = system: Rattus norvegicus; assay: Distribution of radio activity in tissues of unfasted male rats was measured at 30 min of time in spleen after intravenous administration; assay type: ADME, organism-based; conditions: in vivo, 0.5 h
[21] = system: Rattus norvegicus; assay: Distribution of radio activity in tissues of unfasted male rats was measured at 60 min of time in heart after intravenous administration; assay type: ADME, organism-based; conditions: in vivo, 1 h
[22] = system: Rattus norvegicus; assay: Distribution of radio activity in tissues of unfasted male rats was measured at 30 min of time in blood after intravenous administration; assay type: ADME, organism-based; conditions: in vivo, 0.5 h
[23] = system: Rattus norvegicus; assay: Distribution of radio activity in tissues of unfasted male rats was measured as regional uptake at 120 min of time in cortex after intravenous administration; assay type: ADME, organism-based; conditions: in vivo, 2 h
[24] = system: Rattus norvegicus; assay: Distribution of radio activity in tissues of unfasted male rats was measured at 120 min of time in skin after intravenous administration; assay type: ADME, organism-based; conditions: in vivo, 2 h
[25] = system: Rattus norvegicus; assay: Distribution of radio activity in tissues of unfasted male rats was measured at 60 min of time in liver after intravenous administration; assay type: ADME, organism-based; conditions: in vivo, 1 h
[26] = system: Rattus norvegicus; assay: Distribution of radio activity in tissues of unfasted male rats was measured at 30 min of time in brain after intravenous administration; assay type: ADME, organism-based; conditions: in vivo, 0.5 h
[27] = system: Rattus norvegicus; assay: Distribution of radio activity in tissues of unfasted male rats was measured at 2 min of time in brain after intravenous administration; assay type: ADME, organism-based; conditions: in vivo
[28] = system: Rattus norvegicus; assay: Distribution of radio activity in tissues of unfasted male rats was measured at 120 min of time in lung after intravenous administration; assay type: ADME, organism-based; conditions: in vivo, 2 h
[29] = system: Rattus norvegicus; assay: Distribution of radio activity in tissues of unfasted male rats was measured at 120 min of time in thyroid after intravenous administration; assay type: ADME, organism-based, Thyroid gland; conditions: in vivo, 2 h
[30] = system: Rattus norvegicus; assay: Distribution of radio activity in tissues of unfasted male rats was measured as regional uptake at 30 min of time in cerebellum after intravenous administration; assay type: ADME, organism-based; conditions: in vivo, 0.5 h
[31] = system: Rattus norvegicus; assay: Distribution of radio activity in tissues of unfasted male rats was measured at 30 min of time in thyroid after intravenous administration; assay type: ADME, organism-based, Thyroid gland; conditions: in vivo, 0.5 h

Sodium-dependent dopamine transporter, sequence (P23977 whole entry): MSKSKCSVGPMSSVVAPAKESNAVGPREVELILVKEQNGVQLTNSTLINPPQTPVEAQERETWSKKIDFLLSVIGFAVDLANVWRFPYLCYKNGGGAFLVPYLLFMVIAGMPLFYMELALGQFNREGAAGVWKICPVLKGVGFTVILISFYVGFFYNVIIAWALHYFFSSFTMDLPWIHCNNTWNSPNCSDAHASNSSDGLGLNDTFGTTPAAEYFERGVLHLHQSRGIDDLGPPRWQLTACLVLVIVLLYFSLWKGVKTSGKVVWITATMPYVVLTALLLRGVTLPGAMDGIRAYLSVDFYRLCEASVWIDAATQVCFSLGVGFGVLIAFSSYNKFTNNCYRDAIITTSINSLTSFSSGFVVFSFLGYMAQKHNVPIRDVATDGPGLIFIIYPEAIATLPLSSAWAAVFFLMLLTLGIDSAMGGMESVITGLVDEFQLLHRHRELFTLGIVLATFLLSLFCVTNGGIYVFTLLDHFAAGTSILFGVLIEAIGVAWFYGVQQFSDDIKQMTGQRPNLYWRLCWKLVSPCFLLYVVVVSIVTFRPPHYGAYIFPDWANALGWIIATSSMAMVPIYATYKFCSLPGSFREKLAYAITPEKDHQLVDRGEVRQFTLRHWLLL

COC(=O)C1C(c2ccc(Cl)cc2)CC2CCC1N2C/C=C/I (stereo unspecified)
Injected dose/organ [1]: 0.29%
Dose/g [2]: 0.038%
Injected dose/organ [3]: 5.24%
Dose/g [4]: 1.15%
Injected dose/organ [5]: 0.91%
Injected dose/organ [6]: 0.97%
Ki [7]: 0.69 nM
Dose/g [8]: 0.26%
Injected dose/organ [9]: 11.77%
Dose/g [10]: 0.84%
Injected dose/organ [11]: 0.41%
Injected dose/organ [12]: 0.46%
Injected dose/organ [13]: 0.09%
Dose/g [14]: 1.18%
Injected dose/organ [15]: 28.27%
Injected dose/organ [16]: 0.4%
Injected dose/organ [17]: 0.58%
Injected dose/organ [18]: 4.77%
Injected dose/organ [19]: 0.12%
Injected dose/organ [20]: 0.23%
Injected dose/organ [21]: 0.19%
Injected dose/organ [22]: 7.12%
Dose/g [23]: 0.05%
Injected dose/organ [24]: 20%
Injected dose/organ [25]: 1.97%
Injected dose/organ [26]: 0.58%
Injected dose/organ [27]: 1.62%
Injected dose/organ [28]: 0.31%
Injected dose/organ [29]: 1.06%
Dose/g [30]: 0.23%
Injected dose/organ [31]: 0.76%
